{"source": "ChEMBL document CHEMBL1143487", "about": "“Solid support synthesis of 6-aryl-2-substituted pyrimidin-4-yl phenols as anti-infective agents” (2005)", "key": {"[1]": {"tested_on": "Mycobacterium tuberculosis", "assay": "Minimum inhibitory concentration against Mycobacterium tuberculosis", "type": "functional"}, "[2]": {"tested_on": "Plasmodium falciparum", "assay": "Minimum inhibitory concentration against Plasmodium falciparum", "type": "functional"}, "[3]": {"tested_on": "Mycobacterium tuberculosis", "assay": "Minimum inhibitory concentration against Mycobacterium tuberculosis; - = inactive", "type": "functional, organism-based"}}, "note": "The source made the active and inactive calls. The calls are words filed in the database; no cut-off is given here."}
{"compound": "Oc1ccc(-c2cc(-c3ccccc3)nc(N3CCN(Cc4ccccc4)CC3)n2)cc1", "values": [{"measurement": "MIC", "setting": "[1]", "result": 25, "unit": "µg/mL"}, {"measurement": "MIC", "setting": "[2]", "result": 1, "unit": "µg/mL"}]}
{"compound": "Cc1ccc(-c2cc(-c3ccc(O)cc3)nc(N3CCN(Cc4ccccc4)CC3)n2)cc1", "values": [{"measurement": "MIC", "setting": "[3]", "result": "inactive"}, {"measurement": "MIC", "setting": "[2]", "result": 2, "unit": "µg/mL"}]}
{"compound": "COc1ccc(-c2cc(-c3ccc(O)cc3)nc(N3CCCCC3)n2)cc1OC", "values": [{"measurement": "MIC", "setting": "[1]", "result": 25, "unit": "µg/mL"}, {"measurement": "MIC", "setting": "[2]", "result": 1, "unit": "µg/mL"}]}
{"compound": "COc1ccc(-c2cc(-c3ccc(O)cc3)nc(N3CCN(Cc4ccccc4)CC3)n2)cc1OC", "values": [{"measurement": "MIC", "setting": "[3]", "result": "inactive"}, {"measurement": "MIC", "setting": "[2]", "result": 0.5, "unit": "µg/mL"}]}
{"compound": "CN1CCN(c2nc(-c3ccccc3)cc(-c3ccc(O)cc3)n2)CC1", "values": [{"measurement": "MIC", "setting": "[1]", "result": 25, "unit": "µg/mL"}, {"measurement": "MIC", "setting": "[2]", "result": 0.5, "unit": "µg/mL"}]}
{"compound": "COc1ccc(OC)c(-c2cc(-c3ccc(O)cc3)nc(N3CCCCC3)n2)c1", "values": [{"measurement": "MIC", "setting": "[1]", "result": 25, "unit": "µg/mL"}, {"measurement": "MIC", "setting": "[2]", "result": 1, "unit": "µg/mL"}]}
{"compound": "Oc1ccc(-c2cc(-c3ccccc3)nc(N3CCN(c4ccccc4)CC3)n2)cc1", "values": [{"measurement": "MIC", "setting": "[1]", "result": 25, "unit": "µg/mL"}, {"measurement": "MIC", "setting": "[2]", "result": 10, "unit": "µg/mL"}]}
{"compound": "COc1ccc(OC)c(-c2cc(-c3ccc(O)cc3)nc(N3CCN(Cc4ccccc4)CC3)n2)c1", "values": [{"measurement": "MIC", "setting": "[1]", "result": 25, "unit": "µg/mL"}, {"measurement": "MIC", "setting": "[2]", "result": 0.25, "unit": "µg/mL"}]}
{"compound": "Cc1ccc(-c2cc(-c3ccc(O)cc3)nc(N3CCN(C)CC3)n2)cc1", "values": [{"measurement": "MIC", "setting": "[1]", "result": 25, "unit": "µg/mL"}, {"measurement": "MIC", "setting": "[2]", "result": 1, "unit": "µg/mL"}]}
{"compound": "Oc1ccc(-c2cc(-c3ccccc3)nc(N3CCCCC3)n2)cc1", "values": [{"measurement": "MIC", "setting": "[1]", "result": 25, "unit": "µg/mL"}, {"measurement": "MIC", "setting": "[2]", "result": 2, "unit": "µg/mL"}]}
{"compound": "COc1ccc(OC)c(-c2cc(-c3ccc(O)cc3)nc(N3CCCC3)n2)c1", "values": [{"measurement": "MIC", "setting": "[1]", "result": 25, "unit": "µg/mL"}, {"measurement": "MIC", "setting": "[2]", "result": 1, "unit": "µg/mL"}]}
{"compound": "COc1ccc(-c2cc(-c3ccc(O)cc3)nc(N3CCN(C)CC3)n2)cc1OC", "values": [{"measurement": "MIC", "setting": "[1]", "result": 12.5, "unit": "µg/mL"}, {"measurement": "MIC", "setting": "[2]", "result": 0.25, "unit": "µg/mL"}]}
{"compound": "COc1ccc(-c2cc(-c3ccc(O)cc3)nc(N3CCCC3)n2)cc1", "values": [{"measurement": "MIC", "setting": "[3]", "result": "inactive"}, {"measurement": "MIC", "setting": "[2]", "result": 1, "unit": "µg/mL"}]}
{"compound": "COc1ccc(-c2cc(-c3ccc(O)cc3)nc(N3CCN(Cc4ccccc4)CC3)n2)cc1", "values": [{"measurement": "MIC", "setting": "[3]", "result": "inactive"}, {"measurement": "MIC", "setting": "[2]", "result": 1, "unit": "µg/mL"}]}
{"compound": "Cc1ccc(-c2cc(-c3ccc(O)cc3)nc(N)n2)cc1", "values": [{"measurement": "MIC", "setting": "[3]", "result": "inactive"}, {"measurement": "MIC", "setting": "[2]", "result": 50, "unit": "µg/mL"}]}
{"compound": "COc1ccc(-c2cc(-c3ccc(O)cc3)nc(N)n2)cc1OC", "values": [{"measurement": "MIC", "setting": "[1]", "result": 12.5, "unit": "µg/mL"}, {"measurement": "MIC", "setting": "[2]", "result": 10, "unit": "µg/mL"}]}
{"compound": "COc1ccc(OC)c(-c2cc(-c3ccc(O)cc3)nc(N)n2)c1", "values": [{"measurement": "MIC", "setting": "[1]", "result": 25, "unit": "µg/mL"}, {"measurement": "MIC", "setting": "[2]", "result": 10, "unit": "µg/mL"}]}
{"compound": "COc1ccc(-c2cc(-c3ccc(O)cc3)nc(N3CCCCC3)n2)cc1", "values": [{"measurement": "MIC", "setting": "[3]", "result": "inactive"}, {"measurement": "MIC", "setting": "[2]", "result": 0.5, "unit": "µg/mL"}]}
{"compound": "COc1ccc(-c2cc(-c3ccc(O)cc3)nc(N)n2)cc1", "values": [{"measurement": "MIC", "setting": "[3]", "result": "inactive"}, {"measurement": "MIC", "setting": "[2]", "result": 50, "unit": "µg/mL"}]}
{"compound": "COc1ccc(-c2cc(-c3ccc(O)cc3)nc(N3CCCC3)n2)cc1OC", "values": [{"measurement": "MIC", "setting": "[1]", "result": 25, "unit": "µg/mL"}, {"measurement": "MIC", "setting": "[2]", "result": 1, "unit": "µg/mL"}]}
{"compound": "COc1ccc(-c2cc(-c3ccc(O)cc3)nc(N3CCN(c4ccccc4)CC3)n2)cc1OC", "values": [{"measurement": "MIC", "setting": "[3]", "result": "inactive"}, {"measurement": "MIC", "setting": "[2]", "result": 1, "unit": "µg/mL"}]}
{"compound": "Cc1ccc(-c2cc(-c3ccc(O)cc3)nc(N3CCCC3)n2)cc1", "values": [{"measurement": "MIC", "setting": "[3]", "result": "inactive"}, {"measurement": "MIC", "setting": "[2]", "result": 2, "unit": "µg/mL"}]}
{"compound": "Cc1ccc(-c2cc(-c3ccc(O)cc3)nc(N3CCCCC3)n2)cc1", "values": [{"measurement": "MIC", "setting": "[3]", "result": "inactive"}, {"measurement": "MIC", "setting": "[2]", "result": 2, "unit": "µg/mL"}]}
{"compound": "Nc1nc(-c2ccccc2)cc(-c2ccc(O)cc2)n1", "values": [{"measurement": "MIC", "setting": "[3]", "result": "inactive"}, {"measurement": "MIC", "setting": "[2]", "result": 10, "unit": "µg/mL"}]}
{"compound": "COc1ccc(-c2cc(-c3ccc(O)cc3)nc(N3CCN(c4ccccc4)CC3)n2)cc1", "values": [{"measurement": "MIC", "setting": "[3]", "result": "inactive"}, {"measurement": "MIC", "setting": "[2]", "result": 2, "unit": "µg/mL"}]}
{"compound": "Oc1ccc(-c2cc(-c3ccccc3)nc(N3CCCC3)n2)cc1", "values": [{"measurement": "MIC", "setting": "[1]", "result": 25, "unit": "µg/mL"}, {"measurement": "MIC", "setting": "[2]", "result": 2, "unit": "µg/mL"}]}
{"compound": "COc1ccc(OC)c(-c2cc(-c3ccc(O)cc3)nc(N3CCN(C)CC3)n2)c1", "values": [{"measurement": "MIC", "setting": "[1]", "result": 12.5, "unit": "µg/mL"}, {"measurement": "MIC", "setting": "[2]", "result": 0.25, "unit": "µg/mL"}]}
{"compound": "COc1ccc(-c2cc(-c3ccc(O)cc3)nc(N3CCN(C)CC3)n2)cc1", "values": [{"measurement": "MIC", "setting": "[1]", "result": 25, "unit": "µg/mL"}, {"measurement": "MIC", "setting": "[2]", "result": 0.5, "unit": "µg/mL"}]}
{"compound": "COc1ccc(OC)c(-c2cc(-c3ccc(O)cc3)nc(N3CCN(c4ccccc4)CC3)n2)c1", "values": [{"measurement": "MIC", "setting": "[3]", "result": "inactive"}, {"measurement": "MIC", "setting": "[2]", "result": 2, "unit": "µg/mL"}]}
{"compound": "Cc1ccc(-c2cc(-c3ccc(O)cc3)nc(N3CCN(c4ccccc4)CC3)n2)cc1", "values": [{"measurement": "MIC", "setting": "[3]", "result": "inactive"}, {"measurement": "MIC", "setting": "[2]", "result": 10, "unit": "µg/mL"}]}
